From article PMC9617636 (Antiviral Research, 2022)

How the values were obtained:
Format in all cases: cell-based
[1] = tested on: SARS-CoV-2; assay: Antiviral plaque assay in Vero-E6 cells; conditions: Severe acute respiratory syndrome coronavirus 2, Vero C1008, read-out: EC50 (95% CI), SARS-CoV-2 B.1.351 (Beta), Vero-E6
[2] = tested on: B.1.1.7 SARS-CoV-2
[3] = tested on: −1 PRF signal of SARS-CoV-2

Row | SMILES | EC50 [1] [µM] | change in the EC50s after 11 passages in presence of geneticin [2] | -1PRF inhibition with mutated binding pocket [3]
1 | CN[C@@H]1[C@@H](O)[C@@H](O[C@@H]2[C@@H](O)[C@H](O[C@H]3O[C@H]([C@@H](C)O)[C@@H](O)[C@H](O)[C@H]3N)[C@@H](N)C[C@H]2N)OC[C@]1(C)O [Geneticin] | 129 | did not observe any significant change in the EC50s | significant loss of -1PRF inhibition
2 | CCNCC1CCN(c2c(F)cc3c(=O)c(C(=O)O)cn(CC)c3c2F)C1 (stereo not shown) [Merafloxacin] | – | – | significant loss of -1PRF inhibition
